Among the test systems are HOP-62 NSCLC; MALME-3M melanoma; MDA-MB-435; MOLT-4 leukemia; NCI-H460 lung; OVCAR-3 ovarian; PC-3 prostate; SF-295 CNS; SF-539 CNS; SK-MEL-2 melanoma; SNB-19 CNS.
Assay in all cases: DTP human tumour cell line panel, 48 h

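Results reflect a 48-hour exposure of cells in 96-well plates to compound at five concentrations. TGI is the concentration that stops growth completely.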 Bounds are passed on as bounds.

Take `CSc1ncnc2c1ncn2C1CC(Oc2ccc(C)cc2)C(COc2ccc(C)cc2)O1` (centres undefined): the total growth inhibition concentration (TGI) with HOP-62 NSCLC, with MALME-3M melanoma, in the experiment with MDA-MB-435, with MOLT-4 leukemia, with NCI-H460 lung and in the experiment on OVCAR-3 ovarian was over 100 µM throughout. Moreover, the TGI with PC-3 prostate, in the experiment on SF-295 CNS, in the experiment with SF-539 CNS, with SK-MEL-2 melanoma and in the experiment with SNB-19 CNS was over 100 µM each time.
Regarding `Cc1ccc(SCC(CF)OC(C)n2cnc3c(=O)[nH]c(N)nc32)cc1` (centres undefined), the concentration for total growth inhibition (TGI) in the experiment with HOP-62 NSCLC, in the experiment with MALME-3M melanoma, in the experiment on MDA-MB-435, with MOLT-4 leukemia, with NCI-H460 lung and in the experiment with OVCAR-3 ovarian was over 100 µM in each case. Also, the TGI in the experiment on PC-3 prostate, in the experiment with SF-295 CNS, in the experiment with SF-539 CNS, in the experiment with SK-MEL-2 melanoma and with SNB-19 CNS was over 100 µM throughout.
Take `CON(C)C(=O)CNC(=O)OCC1c2ccccc2-c2ccccc21`: the concentration for total growth inhibition (TGI) with HOP-62 NSCLC, in the experiment with MALME-3M melanoma, in the experiment on MDA-MB-435, with MOLT-4 leukemia, in the experiment with NCI-H460 lung and in the experiment with OVCAR-3 ovarian was over 100 µM in each case. The TGI with PC-3 prostate, in the experiment on SF-295 CNS, in the experiment with SF-539 CNS, in the experiment on SK-MEL-2 melanoma and in the experiment with SNB-19 CNS was over 100 µM each time.
For `O=C(c1ccc(N=Cc2ccccc2O)cc1)c1ccc(N=Cc2ccccc2O)cc1`, the TGI in the experiment with HOP-62 NSCLC, in the experiment on MALME-3M melanoma, in the experiment on MDA-MB-435, with MOLT-4 leukemia, with NCI-H460 lung and in the experiment on OVCAR-3 ovarian was over 100 µM throughout. Moreover, the TGI in the experiment with PC-3 prostate, with SF-295 CNS, in the experiment on SF-539 CNS, in the experiment with SK-MEL-2 melanoma and in the experiment on SNB-19 CNS was over 100 µM in each case.
In the case of `COC[C@@H](C[C@H]1O[C@@](O)([C@H](O)[C@@H]2C[C@H](OC)[C@@H](O)CC/C=C(C)/C=C/[C@@H](O[C@@H]3O[C@@H](C)[C@H](OC)[C@@H](O)[C@@H]3O)[C@H](C)/C=C(C)/C=C(C)/C=C(\C)C(=O)O2)[C@H](C)[C@@H](O)[C@H]1C)O[C@H]1C[C@](C)(O)[C@@H](O[C@H]2C[C@@H](OC)[C@H](O)[C@@H](C)O2)C(C)O1` (some centres undefined), the TGI with HOP-62 NSCLC was over 100 µM; in the experiment on MALME-3M melanoma, over 55.5 µM; with MDA-MB-435, over 100 µM; in the experiment on MOLT-4 leukemia, over 64.3 µM; in the experiment with NCI-H460 lung, over 100 µM; in the experiment on OVCAR-3 ovarian it was over 100 µM. Further, the total growth inhibition concentration (TGI) in the experiment on PC-3 prostate, in the experiment with SF-295 CNS, in the experiment with SF-539 CNS, in the experiment with SK-MEL-2 melanoma and in the experiment on SNB-19 CNS was over 100 µM in each case.
On to `CC(=O)OC(/C=C/c1ccccc1)=C(OC(C)C)/C1=C(\c2ccccc2)SCCCSC1=O`, for which the TGI with HOP-62 NSCLC, with MALME-3M melanoma, in the experiment on MDA-MB-435, in the experiment on MOLT-4 leukemia, in the experiment on NCI-H460 lung and with OVCAR-3 ovarian was over 100 µM each time. Moreover, the TGI with PC-3 prostate, in the experiment on SF-295 CNS, in the experiment on SF-539 CNS, in the experiment on SK-MEL-2 melanoma and in the experiment with SNB-19 CNS was over 100 µM throughout.
Regarding `COC1=C(OC)C(=O)C(Cc2c(C)nc3sc(C)cn23)=C(C)C1=O`, the TGI in the experiment with HOP-62 NSCLC was determined as 35.7 µM; with MALME-3M melanoma, 37.3 µM; in the experiment with MDA-MB-435, 33.6 µM; in the experiment with MOLT-4 leukemia, 4.23 µM; in the experiment with NCI-H460 lung it was 54.3 µM; in the experiment on OVCAR-3 ovarian it was 35.6 µM. The total growth inhibition concentration (TGI) was 68.3 µM in the experiment with PC-3 prostate; 43.7 µM with SF-295 CNS; 32.4 µM in the experiment on SF-539 CNS; 34.7 µM in the experiment on SK-MEL-2 melanoma; 36.5 µM in the experiment with SNB-19 CNS.
As for `O=C(N/N=C\c1cccc2c([N+](=O)[O-])cccc12)Nc1ccccc1`, the TGI with HOP-62 NSCLC is 36 µM; in the experiment on MALME-3M melanoma, 38 µM; with MDA-MB-435 it was 25 µM; in the experiment with MOLT-4 leukemia, 41.7 µM; in the experiment with NCI-H460 lung it was 30.9 µM; with OVCAR-3 ovarian it was 29.4 µM. Also, the concentration for total growth inhibition (TGI) in the experiment on PC-3 prostate came to 32.7 µM; in the experiment with SF-295 CNS, 32.5 µM; in the experiment on SF-539 CNS it was 27.3 µM; with SK-MEL-2 melanoma, 18.2 µM; with SNB-19 CNS, 36.5 µM.
For `O=C1C(CN2CCCCC2)CCC1CN1CCCCC1` (centres undefined), the TGI is over 100 µM with HOP-62 NSCLC; 49 µM in the experiment with MALME-3M melanoma; 51.8 µM in the experiment with MDA-MB-435; 3.79 µM in the experiment with MOLT-4 leukemia; over 100 µM in the experiment on NCI-H460 lung; 26.5 µM in the experiment with OVCAR-3 ovarian. Besides, the TGI in the experiment on PC-3 prostate was over 57.6 µM; with SF-295 CNS, over 46.4 µM; in the experiment on SF-539 CNS, 56.1 µM; in the experiment on SK-MEL-2 melanoma it was 52.6 µM; in the experiment on SNB-19 CNS it was over 100 µM.

The values are drawn from PubChem BioAssay (NCI).
